In ChEMBL document CHEMBL4507284, “Data for DCP probe BI-1230” (2021):

How the values were obtained:
Settings in all cases: Compound concentration 10.0 uM
[1] = biological target: GABA-A receptor; anion channel (Rattus norvegicus) (UniProt O09028+P15431+P18506+P18508+P19969+P20236+P23574+P23576+P28471+P28473+P30191+P62813+P63079+P63138+Q91ZM7+Q9ES14)
[2] = biological target: Angiotensin-converting enzyme 2 (Homo sapiens) (UniProt Q9BYF1); assay: ACE-2 (h) Eurofins-Cerep enzyme and uptake assay
[3] = biological target: Muscarinic acetylcholine receptor M5 (Homo sapiens) (UniProt P08912)
Muscarinic acetylcholine receptor M5 (Homo sapiens), sequence (P08912 whole entry): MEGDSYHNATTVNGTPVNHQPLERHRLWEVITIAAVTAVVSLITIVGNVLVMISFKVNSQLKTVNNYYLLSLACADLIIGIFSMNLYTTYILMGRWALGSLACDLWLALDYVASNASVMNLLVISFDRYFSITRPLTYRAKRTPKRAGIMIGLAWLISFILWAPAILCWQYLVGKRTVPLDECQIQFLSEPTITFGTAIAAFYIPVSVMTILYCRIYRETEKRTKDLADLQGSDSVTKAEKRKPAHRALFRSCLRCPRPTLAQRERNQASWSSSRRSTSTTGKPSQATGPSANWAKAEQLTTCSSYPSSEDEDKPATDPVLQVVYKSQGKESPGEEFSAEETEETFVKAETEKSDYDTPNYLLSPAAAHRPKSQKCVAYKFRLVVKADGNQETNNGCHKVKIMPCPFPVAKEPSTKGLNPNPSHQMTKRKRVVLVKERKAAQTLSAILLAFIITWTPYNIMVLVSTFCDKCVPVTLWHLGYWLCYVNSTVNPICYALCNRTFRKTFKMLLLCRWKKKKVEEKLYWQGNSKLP

[4] = biological target: Endothelin-converting enzyme 1 (Homo sapiens) (UniProt P42892); assay: ECE-1 (h) Eurofins-Cerep enzyme and uptake assay
Endothelin-converting enzyme 1 (Homo sapiens), sequence (P42892 whole entry): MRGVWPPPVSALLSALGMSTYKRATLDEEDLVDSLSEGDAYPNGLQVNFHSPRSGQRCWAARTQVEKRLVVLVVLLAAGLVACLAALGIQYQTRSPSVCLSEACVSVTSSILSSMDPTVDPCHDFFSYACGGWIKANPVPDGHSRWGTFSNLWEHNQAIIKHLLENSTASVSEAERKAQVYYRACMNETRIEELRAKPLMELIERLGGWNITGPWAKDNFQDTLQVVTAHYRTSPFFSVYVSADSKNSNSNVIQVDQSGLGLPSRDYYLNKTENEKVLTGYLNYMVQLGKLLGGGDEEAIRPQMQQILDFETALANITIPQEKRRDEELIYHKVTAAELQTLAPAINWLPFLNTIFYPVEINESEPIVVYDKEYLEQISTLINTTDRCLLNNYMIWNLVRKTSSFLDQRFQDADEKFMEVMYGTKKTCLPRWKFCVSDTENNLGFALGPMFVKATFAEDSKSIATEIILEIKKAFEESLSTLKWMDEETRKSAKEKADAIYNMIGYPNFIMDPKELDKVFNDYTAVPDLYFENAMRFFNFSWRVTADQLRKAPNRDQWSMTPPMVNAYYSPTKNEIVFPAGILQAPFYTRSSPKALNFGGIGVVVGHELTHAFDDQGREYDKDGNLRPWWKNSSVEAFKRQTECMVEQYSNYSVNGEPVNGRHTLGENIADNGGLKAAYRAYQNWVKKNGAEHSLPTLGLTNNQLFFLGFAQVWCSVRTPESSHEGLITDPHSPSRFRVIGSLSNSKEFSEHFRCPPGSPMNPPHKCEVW

[5] = biological target: Pro-cathepsin H (Homo sapiens) (UniProt P09668); assay: Cathepsin H (h) Eurofins-Cerep enzyme and uptake assay
Pro-cathepsin H (Homo sapiens), sequence (P09668 116-335 limits assumed, other chains not shown): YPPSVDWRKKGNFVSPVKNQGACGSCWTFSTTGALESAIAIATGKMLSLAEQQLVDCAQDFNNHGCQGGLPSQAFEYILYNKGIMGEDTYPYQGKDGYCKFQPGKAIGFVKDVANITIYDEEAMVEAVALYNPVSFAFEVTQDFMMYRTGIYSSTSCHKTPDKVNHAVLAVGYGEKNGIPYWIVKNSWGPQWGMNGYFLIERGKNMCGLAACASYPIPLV

[6] = biological target: Interstitial collagenase (Homo sapiens) (UniProt P03956); assay: MMP-1 (h) Eurofins-Cerep enzyme and uptake assay
Interstitial collagenase (Homo sapiens), sequence (P03956 whole entry): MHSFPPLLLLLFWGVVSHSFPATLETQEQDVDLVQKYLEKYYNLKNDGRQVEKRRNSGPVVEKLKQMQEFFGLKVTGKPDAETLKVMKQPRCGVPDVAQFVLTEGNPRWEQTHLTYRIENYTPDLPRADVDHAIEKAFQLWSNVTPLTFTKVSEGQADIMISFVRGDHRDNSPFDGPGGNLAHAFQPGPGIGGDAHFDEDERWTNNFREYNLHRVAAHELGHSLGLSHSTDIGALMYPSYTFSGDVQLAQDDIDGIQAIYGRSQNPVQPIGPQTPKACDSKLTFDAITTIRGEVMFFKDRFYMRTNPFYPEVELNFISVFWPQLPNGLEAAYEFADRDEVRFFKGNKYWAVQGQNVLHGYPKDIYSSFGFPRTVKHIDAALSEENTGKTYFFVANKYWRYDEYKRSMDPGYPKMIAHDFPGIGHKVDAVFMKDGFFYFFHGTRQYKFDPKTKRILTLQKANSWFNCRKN

[7] = biological target: Cathepsin B (Homo sapiens) (UniProt P07858); assay: Cathepsin B (h) Eurofins-Cerep enzyme and uptake assay
[8] = biological target: Matrix metalloproteinase-9 (Homo sapiens) (UniProt P14780); assay: MMP-9 (h) Eurofins-Cerep enzyme and uptake assay
Matrix metalloproteinase-9 (Homo sapiens), sequence (P14780 whole entry): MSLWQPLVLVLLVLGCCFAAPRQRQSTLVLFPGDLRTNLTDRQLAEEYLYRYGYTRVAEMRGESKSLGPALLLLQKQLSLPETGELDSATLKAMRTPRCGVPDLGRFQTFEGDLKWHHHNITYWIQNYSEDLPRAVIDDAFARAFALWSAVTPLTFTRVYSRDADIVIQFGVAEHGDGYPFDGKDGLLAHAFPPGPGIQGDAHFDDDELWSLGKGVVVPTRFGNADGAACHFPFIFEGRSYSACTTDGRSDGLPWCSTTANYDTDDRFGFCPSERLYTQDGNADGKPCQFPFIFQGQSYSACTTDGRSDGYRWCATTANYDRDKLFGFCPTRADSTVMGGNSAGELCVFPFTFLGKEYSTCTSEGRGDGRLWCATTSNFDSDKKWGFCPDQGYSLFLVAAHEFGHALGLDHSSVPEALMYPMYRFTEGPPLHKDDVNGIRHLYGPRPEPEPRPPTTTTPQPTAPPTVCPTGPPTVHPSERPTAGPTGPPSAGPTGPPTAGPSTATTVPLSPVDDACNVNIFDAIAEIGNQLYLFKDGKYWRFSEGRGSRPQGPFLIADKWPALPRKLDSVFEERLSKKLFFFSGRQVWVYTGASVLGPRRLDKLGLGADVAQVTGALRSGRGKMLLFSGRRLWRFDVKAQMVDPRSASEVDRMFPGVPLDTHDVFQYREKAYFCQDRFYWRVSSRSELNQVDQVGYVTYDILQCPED

[9] = biological target: Proteinase-activated receptor 1 (Homo sapiens) (UniProt P25116); assay: PAR1 (h) Eurofins-Cerep Cellular and Nuclear Receptor Functional Assays
Proteinase-activated receptor 1 (Homo sapiens), sequence (P25116 whole entry): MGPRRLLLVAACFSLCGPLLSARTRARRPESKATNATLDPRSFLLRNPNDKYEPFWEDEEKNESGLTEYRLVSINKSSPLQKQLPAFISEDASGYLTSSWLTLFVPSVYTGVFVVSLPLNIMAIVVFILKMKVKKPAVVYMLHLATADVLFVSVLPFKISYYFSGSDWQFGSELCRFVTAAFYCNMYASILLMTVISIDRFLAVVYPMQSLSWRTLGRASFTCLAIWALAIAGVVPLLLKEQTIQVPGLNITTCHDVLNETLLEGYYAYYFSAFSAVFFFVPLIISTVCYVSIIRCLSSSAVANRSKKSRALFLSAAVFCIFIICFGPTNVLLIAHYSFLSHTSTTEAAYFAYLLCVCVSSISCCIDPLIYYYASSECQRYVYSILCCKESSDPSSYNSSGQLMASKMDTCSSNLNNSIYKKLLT

[10] = biological target: Macrophage metalloelastase (Homo sapiens) (UniProt P39900); assay: MMP-12 (h) Eurofins-Cerep enzyme and uptake assay
Macrophage metalloelastase (Homo sapiens), sequence (P39900 106-470 limits assumed): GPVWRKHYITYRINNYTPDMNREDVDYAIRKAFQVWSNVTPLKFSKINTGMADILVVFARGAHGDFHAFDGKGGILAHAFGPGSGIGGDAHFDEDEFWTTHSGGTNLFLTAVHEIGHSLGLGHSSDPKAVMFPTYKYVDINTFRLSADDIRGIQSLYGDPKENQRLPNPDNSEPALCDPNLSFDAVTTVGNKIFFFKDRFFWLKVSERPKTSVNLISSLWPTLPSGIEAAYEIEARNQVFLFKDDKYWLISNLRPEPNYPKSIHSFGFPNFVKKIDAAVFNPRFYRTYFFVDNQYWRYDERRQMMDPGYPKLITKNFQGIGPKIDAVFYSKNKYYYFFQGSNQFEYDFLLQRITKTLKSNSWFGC

Angiotensin-converting enzyme 2 (Homo sapiens), sequence (Q9BYF1 18-805 limits assumed): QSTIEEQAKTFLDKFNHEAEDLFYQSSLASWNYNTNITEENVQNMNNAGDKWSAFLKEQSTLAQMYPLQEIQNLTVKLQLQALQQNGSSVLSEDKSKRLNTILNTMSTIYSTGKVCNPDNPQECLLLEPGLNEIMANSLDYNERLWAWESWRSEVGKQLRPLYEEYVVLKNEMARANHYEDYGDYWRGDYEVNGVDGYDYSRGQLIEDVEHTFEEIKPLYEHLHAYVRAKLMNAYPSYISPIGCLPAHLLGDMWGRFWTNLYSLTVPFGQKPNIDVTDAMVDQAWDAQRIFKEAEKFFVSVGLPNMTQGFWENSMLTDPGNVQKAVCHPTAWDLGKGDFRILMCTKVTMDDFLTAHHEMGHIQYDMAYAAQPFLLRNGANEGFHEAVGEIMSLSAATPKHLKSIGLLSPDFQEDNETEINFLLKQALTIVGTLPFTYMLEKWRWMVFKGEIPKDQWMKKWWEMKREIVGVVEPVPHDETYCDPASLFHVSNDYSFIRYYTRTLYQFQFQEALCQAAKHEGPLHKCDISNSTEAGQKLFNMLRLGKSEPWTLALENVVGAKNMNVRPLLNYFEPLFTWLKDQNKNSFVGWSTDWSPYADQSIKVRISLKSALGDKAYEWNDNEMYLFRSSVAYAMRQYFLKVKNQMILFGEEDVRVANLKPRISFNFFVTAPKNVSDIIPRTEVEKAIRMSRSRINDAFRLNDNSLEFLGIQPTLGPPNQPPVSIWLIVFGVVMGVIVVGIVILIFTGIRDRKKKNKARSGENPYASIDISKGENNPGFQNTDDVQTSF

SMILES: O=C(N[C@H]1CCCCC/C=C\C2C[C@@]2(C(=O)O)NC(=O)[C@@H]2C[C@@H](Oc3ccncc3)CN2C1=O)OC1CCCC1 (stereo partly specified) [BI 1675]
- inhibition [1]: 8.04%

SMILES: COc1ccc2c(O[C@@H]3C[C@H]4C(=O)N[C@]5(C(=O)O)CC5/C=C\CCCCC[C@H](NC(=O)OC5CCCC5)C(=O)N4C3)cc(-c3csc(NC(=O)C(C)C)n3)nc2c1C (stereo partly specified) [BI 1230]
- % Inhibition of Control Values [2]: -54.7%
- inhibition [3]: 3.15%
- % Inhibition of Control Values [4]: 14.3%
- % Inhibition of Control Values [5]: -8.1%
- % Inhibition of Control Values [6]: 23.1%
- % Inhibition of Control Values [7]: -1.7%
- % Inhibition of Control Values [8]: 16.1%
- % Inhibition of Control Agonist Response [9]: 59.6%
- % of Control Agonist Response [9]: -0.9%
- % Inhibition of Control Values [10]: 73.8%
